According to PubChem BioAssay (NCI):
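Protocol summary: plate cells (96-well), add compound at 5 concentrations, incubate 48 h, interpolate endpoints linearly. Abbreviation: GI50, concentration required for 50% inhibition of growth. TGI denotes the concentration required for complete inhibition of growth.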

Tests used:
Experiment in all cases: DTP human tumour cell line panel, 48 h
[1] = test system: 786-0 renal
[2] = test system: A498 renal
[3] = test system: A549 NSCLC
[4] = test system: ACHN renal
[5] = test system: BT-549 breast
[6] = test system: CAKI-1 renal
[7] = test system: COLO 205 colon
[8] = test system: DU-145 prostate
[9] = test system: EKVX NSCLC
[10] = test system: HCC-2998 colon
[11] = test system: HCT-116 colon
[12] = test system: HCT-15 colon
[13] = test system: HL-60(TB) leukemia
[14] = test system: HOP-62 NSCLC
[15] = test system: HOP-92 NSCLC
[16] = test system: HS 578T breast
[17] = test system: HT29 colon
[18] = test system: IGROV1 ovarian
[19] = test system: K-562 leukemia
[20] = test system: KM12 colon
[21] = test system: LOX IMVI melanoma
[22] = test system: M14 melanoma
[23] = test system: MALME-3M melanoma
[24] = test system: MCF7 breast
[25] = test system: MDA-MB-231 breast
[26] = test system: MDA-MB-435
[27] = test system: MOLT-4 leukemia
[28] = test system: NCI-H226 lung
[29] = test system: NCI-H23 lung
[30] = test system: NCI-H460 lung
[31] = test system: NCI-H522 lung
[32] = test system: NCI/ADR-RES ovarian
[33] = test system: OVCAR-3 ovarian
[34] = test system: OVCAR-4 ovarian
[35] = test system: OVCAR-5 ovarian
[36] = test system: OVCAR-8 ovarian
[37] = test system: PC-3 prostate
[38] = test system: RPMI-8226 leukemia
[39] = test system: RXF 393 renal
[40] = test system: SF-268 CNS
[41] = test system: SF-295 CNS
[42] = test system: SF-539 CNS
[43] = test system: SK-MEL-2 melanoma
[44] = test system: SK-MEL-28 melanoma
[45] = test system: SK-MEL-5 melanoma
[46] = test system: SK-OV-3 ovarian
[47] = test system: SN12C renal
[48] = test system: SNB-19 CNS
[49] = test system: SR leukemia
[50] = test system: SW-620 colon
[51] = test system: T-47D breast
[52] = test system: TK-10 renal
[53] = test system: U251 CNS
[54] = test system: UACC-257 melanoma
[55] = test system: UACC-62 melanoma
[56] = test system: UO-31 renal

For Nc1nn(C(=O)Nc2c(F)cccc2F)c2ccccc12, the GI50 [1] was greater than 100 µM, the TGI [1] was greater than 100 µM and the GI50 [2] was 31.4 µM. For the same compound, the TGI [2] was greater than 100 µM, the GI50 [3] was 48.5 µM and the TGI [3] was greater than 100 µM. It also gave a GI50 [4] of 50.1 µM, a TGI [4] greater than 100 µM and a GI50 [5] of 28.8 µM. It also gave a TGI [5] greater than 100 µM, a GI50 [6] of 45.3 µM and a TGI [6] greater than 100 µM. It also gave a GI50 [7] greater than 100 µM, a TGI [7] greater than 100 µM and a GI50 [8] of 62.3 µM. The TGI [8] was greater than 100 µM, the GI50 [9] was 83.9 µM and the TGI [9] was greater than 100 µM. It also gave a GI50 [10] of 95.8 µM, a TGI [10] greater than 100 µM and a GI50 [11] of 34.8 µM. It also gave a TGI [11] greater than 100 µM, a GI50 [12] of 40.9 µM and a TGI [12] greater than 100 µM. For the same compound, the GI50 [13] was 33.2 µM, the TGI [13] was greater than 100 µM and the GI50 [14] was 51 µM. The TGI [14] was greater than 100 µM, the GI50 [15] was 17.3 µM and the TGI [15] was greater than 100 µM. The GI50 [16] was 73 µM, the TGI [16] was greater than 100 µM and the GI50 [17] was 74.6 µM. For the same compound, the TGI [17] was greater than 100 µM, the GI50 [18] was 7.7 µM and the TGI [18] was greater than 100 µM. For the same compound, the GI50 [19] was greater than 100 µM, the TGI [19] was greater than 100 µM and the GI50 [20] was 86.2 µM. For the same compound, the TGI [20] was greater than 100 µM, the GI50 [21] was 49.3 µM and the TGI [21] was greater than 100 µM. The GI50 [22] was 74.6 µM, the TGI [22] was greater than 100 µM and the GI50 [23] was greater than 100 µM. For the same compound, the TGI [23] was greater than 100 µM, the GI50 [24] was 60 µM and the TGI [24] was greater than 100 µM. For the same compound, the GI50 [25] was 98.7 µM, the TGI [25] was greater than 100 µM and the GI50 [26] was 54.9 µM. For the same compound, the TGI [26] was greater than 100 µM, the GI50 [27] was 32.7 µM and the TGI [27] was greater than 100 µM. For the same compound, the GI50 [28] was 98.5 µM, the TGI [28] was greater than 100 µM and the GI50 [29] was 95.6 µM. For the same compound, the TGI [29] was greater than 100 µM, the GI50 [30] was 33.4 µM and the TGI [30] was greater than 100 µM. It also gave a GI50 [31] of 55.1 µM, a TGI [31] greater than 100 µM and a GI50 [32] of 56.5 µM. It also gave a TGI [32] greater than 100 µM, a GI50 [33] of 65.7 µM and a TGI [33] greater than 100 µM. The GI50 [34] was 57.8 µM, the TGI [34] was greater than 100 µM and the GI50 [35] was greater than 100 µM. The TGI [35] was greater than 100 µM, the GI50 [36] was 44.2 µM and the TGI [36] was greater than 100 µM. The GI50 [37] was greater than 100 µM, the TGI [37] was greater than 100 µM and the GI50 [38] was 16.1 µM. The TGI [38] was greater than 100 µM, the GI50 [39] was 20.2 µM and the TGI [39] was greater than 100 µM. For the same compound, the GI50 [40] was 36.2 µM, the TGI [40] was greater than 100 µM and the GI50 [41] was 54.8 µM. For the same compound, the TGI [41] was greater than 100 µM, the GI50 [42] was 31.4 µM and the TGI [42] was greater than 100 µM. It also gave a GI50 [43] greater than 100 µM, a TGI [43] greater than 100 µM and a GI50 [44] of 56.3 µM. The TGI [44] was greater than 100 µM, the GI50 [45] was 39.7 µM and the TGI [45] was greater than 100 µM. For the same compound, the GI50 [46] was greater than 100 µM, the TGI [46] was greater than 100 µM and the GI50 [47] was greater than 100 µM. For the same compound, the TGI [47] was greater than 100 µM, the GI50 [48] was greater than 100 µM and the TGI [48] was greater than 100 µM. For the same compound, the GI50 [49] was 12.9 µM, the TGI [49] was greater than 100 µM and the GI50 [50] was 38.3 µM. For the same compound, the TGI [50] was greater than 100 µM, the GI50 [51] was 68.7 µM and the TGI [51] was greater than 100 µM. The GI50 [52] was greater than 100 µM, the TGI [52] was greater than 100 µM and the GI50 [53] was 96.1 µM. The TGI [53] was greater than 100 µM, the GI50 [54] was 71.7 µM and the TGI [54] was greater than 100 µM. It also gave a GI50 [55] of 43.9 µM, a TGI [55] greater than 100 µM and a GI50 [56] of 18.6 µM. For the same compound, the TGI [56] was greater than 100 µM.
